Experimental data taken from PubChem BioAssay (NCI).
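Briefly, cells in 96-well plates were exposed to five compound concentrations for 48 h, and endpoints were estimated by linear interpolation. Abbreviation: GI50, concentration required for 50% inhibition of growth. TGI is the concentration that stops growth completely.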

How the values were obtained:
Experiment in all cases: growth of human tumour cells (NCI), 48 h
TK-10 renal = tested on: TK-10 renal
SK-MEL-28 melanoma = tested on: SK-MEL-28 melanoma
SF-539 CNS = tested on: SF-539 CNS
CAKI-1 renal = tested on: CAKI-1 renal
HT29 colon = tested on: HT29 colon
RPMI-8226 leukemia = tested on: RPMI-8226 leukemia
MOLT-4 leukemia = tested on: MOLT-4 leukemia
HCT-116 colon = tested on: HCT-116 colon
ACHN renal = tested on: ACHN renal

Structure (SMILES) | TGI (TK-10 renal) | TGI (SK-MEL-28 melanoma) | TGI (SF-539 CNS) | TGI (CAKI-1 renal) | TGI (HT29 colon) | TGI (RPMI-8226 leukemia) | TGI (MOLT-4 leukemia) | TGI (HCT-116 colon) | TGI (ACHN renal) | GI50 (TK-10 renal) | GI50 (SK-MEL-28 melanoma) | GI50 (HT29 colon) | GI50 (RPMI-8226 leukemia) | GI50 (MOLT-4 leukemia) | GI50 (HCT-116 colon)
C=C[C@@H](C)[C@]1(C(=O)OC)CCCC12OCCO2 | > 100 µM | > 100 µM | > 100 µM | > 100 µM | > 100 µM | > 100 µM | > 100 µM | > 100 µM | > 100 µM |  |  |  |  |  | 
O=C(CCC(=O)Nc1ccc(Cl)c(Cl)c1)Cc1nc2ccccc2o1 | > 100 µM | > 100 µM | > 100 µM | > 100 µM | > 100 µM | > 100 µM | > 100 µM | > 100 µM | > 100 µM |  |  |  |  |  | 
CSc1ccc2c(cc1=O)[C@@H](NC(=O)c1cccc([N+](=O)[O-])c1)CCc1cc(O)c(O)c(O)c1-2 | > 100 µM | > 100 µM | 62.9 µM | > 100 µM | > 100 µM | > 100 µM | 53.1 µM | 35.9 µM | > 100 µM |  |  |  |  |  | 
Cc1cnc2ccc(C)c([N+](=O)[O-])c2c1NCCCN(C)C | > 100 µM | > 100 µM | > 100 µM | > 100 µM | > 100 µM | > 100 µM | > 100 µM | > 100 µM | > 100 µM |  |  |  |  |  | 
Cc1c(C)c2ccc3oc4ccccc4c3c2oc1=O | > 100 µM | > 100 µM | > 100 µM | > 100 µM | > 100 µM | > 100 µM | > 100 µM | > 100 µM | > 100 µM |  |  |  |  |  | 
Cc1ccc(C)c(N2C(=O)C(=O)C(c3nc4ccccc4s3)/C(=N/N)C2=O)c1 (stereo unspecified) | > 100 µM | > 100 µM | > 100 µM | > 100 µM | > 100 µM | > 100 µM | > 100 µM | > 100 µM | > 100 µM |  |  |  |  |  | 
CCOC(OC(C)=O)[C@@H]1C=C[C@H](C)N(c2ccc([N+](=O)[O-])cc2)O1 (stereo partly specified) | 14 µM | 9.62 µM | 8.44 µM | 24.3 µM | 11.4 µM | 5.45 µM | 5.49 µM | 2.61 µM | 13 µM |  |  |  |  |  | 
COc1cc2cc(OC(C)=O)c3cc4c(cc3c2c(OC)c1OC)OCO4 | > 100 µM | > 100 µM | > 100 µM |  | > 100 µM |  | > 100 µM | > 100 µM | > 100 µM |  |  |  |  |  | 
COC(=O)c1cc2c(=O)n(C)c3ccccc3n2c1C(=O)OC | 77.4 µM | > 100 µM | 75.8 µM | > 100 µM | > 100 µM | > 100 µM | > 100 µM |  | > 100 µM |  |  |  |  |  | 
C=C(C)[C@H]1CC[C@@]2(C)C(C1)[C@H](C)CC[C@@H]2O (stereo partly specified) | > 100 µM | > 100 µM | > 100 µM | > 100 µM | > 100 µM | > 100 µM | > 100 µM | > 100 µM | > 100 µM |  |  |  |  |  | 
CN(CCS(=O)(=O)N1C(=O)C2CCCN2C(=O)[C@@H]1Cc1ccccc1)C(=O)OCc1ccccc1 (stereo partly specified) | > 100 µM | > 100 µM | > 100 µM | > 100 µM | > 100 µM | 45.4 µM | 53.5 µM | > 100 µM | 73.4 µM |  |  |  |  |  | 
CC(=O)Nc1ccc(/C=C/C(=O)c2sc(-c3cccnc3)nc2C)cc1 | > 100 µM | > 100 µM | > 100 µM | > 100 µM | > 100 µM | > 100 µM | > 100 µM |  | > 100 µM |  |  |  |  |  | 
O=C1C=C(Nc2ccc(Cl)cc2Cl)c2ccccc2C1=O | > 100 µM | > 100 µM | > 100 µM | > 100 µM | > 100 µM | > 100 µM | > 100 µM | > 100 µM | > 100 µM |  |  |  |  |  | 
O=C1[C@H]2ON(c3ccccc3)C(c3ccc([N+](=O)[O-])cc3)[C@H]2C(=O)N1c1ccc(Cc2ccc(N3C(=O)[C@@H]4ON(c5ccccc5)C(c5ccc([N+](=O)[O-])cc5)[C@@H]4C3=O)cc2)cc1 (stereo partly specified) | > 100 µM | > 100 µM | > 100 µM | > 100 µM | > 100 µM | > 100 µM | > 100 µM | > 100 µM | > 100 µM |  |  |  |  |  | 
CCOC(=O)c1cc(C(=O)c2ccc(OC)cc2)n2ccc(/C=C/c3cc[n+](CC(=O)c4ccc(OC)cc4)cc3)cc12 | 5.76 µM | 3.69 µM |  |  | 4.55 µM | 4.85 µM | 5.53 µM | 3.36 µM |  | 2.01 µM | 1.87 µM | 1.81 µM | 1.65 µM | 1.91 µM | 1.55 µM
CC(C)N(C(=O)C12C3C4C5(C#N)C3C1(C#N)C5C42C#N)C(C)C (stereo unspecified) | > 100 µM | > 100 µM | > 100 µM |  | > 100 µM | > 100 µM | > 100 µM | > 100 µM | > 100 µM |  |  |  |  |  | 
N#C/C(=C\c1cc(O)cc(O)c1)C(N)=O | > 100 µM | > 100 µM | > 100 µM | > 100 µM | > 100 µM | > 100 µM | > 100 µM | > 100 µM | > 100 µM |  |  |  |  |  | 
